According to PMC10620772, “Design, synthesis, and biological evaluation of new pyrimidine-5-carbonitrile derivatives as novel anti-cancer, dual EGFR^WT/COX-2 inhibitors with docking studies” (RSC Advances, 2023):

Columns and labels:
Assay in all cases: NCI60 antitumor screening
Type in all cases: cell-based, human
MDA-MB-435 = conditions: Homo sapiens; 10 μM single dose; MDA-MB-435 (melanoma); read-out: growth inhibition percent (GI%)
UO-31 = conditions: Homo sapiens; 10 μM single dose; UO-31 (renal cancer); read-out: growth inhibition percent (GI%)
HOP-62 = conditions: Homo sapiens; 10 μM single dose; HOP-62 (non-small cell lung cancer); read-out: growth inhibition percent (GI%)
IGROV1 = conditions: Homo sapiens, IGROV-1; 10 μM single dose; IGROV1 (ovarian cancer); read-out: growth inhibition percent (GI%)
NCI-H522 = conditions: Homo sapiens; 10 μM single dose; NCI-H522 (non-small cell lung cancer); read-out: growth inhibition percent (GI%)
NCI-H226 = conditions: Homo sapiens; 10 μM single dose; NCI-H226 (non-small cell lung cancer); read-out: growth inhibition percent (GI%)
RXF 393 = conditions: Homo sapiens; 10 μM single dose; RXF 393 (renal cancer); read-out: growth inhibition percent (GI%)
UACC-62 = conditions: Homo sapiens; 10 μM single dose; UACC-62 (melanoma); read-out: growth inhibition percent (GI%)
HCT-15 = conditions: Homo sapiens; 10 μM single dose; HCT-15 (colon cancer); read-out: growth inhibition percent (GI%)
U251 = conditions: Homo sapiens, U-251; 10 μM single dose; U251 (CNS cancer); read-out: growth inhibition percent (GI%)
NCI/ADR-RES = conditions: Homo sapiens; 10 μM single dose; NCI/ADR-RES (ovarian cancer); read-out: growth inhibition percent (GI%)
A498 = conditions: Homo sapiens; 10 μM single dose; A498 (renal cancer); read-out: growth inhibition percent (GI%)
MCF7 = conditions: Homo sapiens; 10 μM single dose; MCF7 (breast cancer); read-out: growth inhibition percent (GI%)
HT29 = conditions: Homo sapiens, HT-29; 10 μM single dose; HT29 (colon cancer); read-out: growth inhibition percent (GI%)
OVCAR-8 = conditions: Homo sapiens; 10 μM single dose; OVCAR-8 (ovarian cancer); read-out: growth inhibition percent (GI%)
OVCAR-4 = conditions: Homo sapiens; 10 μM single dose; OVCAR-4 (ovarian cancer); read-out: growth inhibition percent (GI%)
LOX IMVI = conditions: Homo sapiens; 10 μM single dose; LOX IMVI (melanoma); read-out: growth inhibition percent (GI%)
SNB-19 = conditions: Homo sapiens; 10 μM single dose; SNB-19 (CNS cancer); read-out: growth inhibition percent (GI%)
RPMI-8226 = conditions: Homo sapiens; 10 μM single dose; RPMI-8226 (leukaemia); read-out: growth inhibition percent (GI%)
HCC-2998 = conditions: Homo sapiens; 10 μM single dose; HCC-2998 (colon cancer); read-out: growth inhibition percent (GI%)
CAKI-1 = conditions: Homo sapiens; 10 μM single dose; CAKI-1 (renal cancer); read-out: growth inhibition percent (GI%)
SF-268 = conditions: Homo sapiens; 10 μM single dose; SF-268 (CNS cancer); read-out: growth inhibition percent (GI%)
SNB-75 = conditions: Homo sapiens; 10 μM single dose; SNB-75 (CNS cancer); read-out: growth inhibition percent (GI%)
SF-539 = conditions: Homo sapiens; 10 μM single dose; SF-539 (CNS cancer); read-out: growth inhibition percent (GI%)
ACHN = conditions: Homo sapiens; 10 μM single dose; ACHN (renal cancer); read-out: growth inhibition percent (GI%)
MALME-3M = conditions: Homo sapiens; 10 μM single dose; MALME-3M (melanoma); read-out: growth inhibition percent (GI%)
NCI-H322M = conditions: Homo sapiens; 10 μM single dose; NCI-H322M (non-small cell lung cancer); read-out: growth inhibition percent (GI%)
CCRF-CEM = conditions: Homo sapiens; 10 μM single dose; CCRF-CEM (leukaemia); read-out: growth inhibition percent (GI%)
HL-60(TB) = conditions: Homo sapiens; 10 μM single dose; HL-60(TB) (leukaemia); read-out: growth inhibition percent (GI%)
A549/ATCC = conditions: Homo sapiens; 10 μM single dose; A549/ATCC (non-small cell lung cancer); read-out: growth inhibition percent (GI%)
TK-10 = conditions: Homo sapiens; 10 μM single dose; TK-10 (renal cancer); read-out: growth inhibition percent (GI%)
786–0 = conditions: Homo sapiens; 10 μM single dose; 786–0 (renal cancer); read-out: growth inhibition percent (GI%)
SK-MEL-5 = conditions: Homo sapiens; 10 μM single dose; SK-MEL-5 (melanoma); read-out: growth inhibition percent (GI%)
K-562 = conditions: Homo sapiens; 10 μM single dose; (leukaemia); read-out: growth inhibition percent (GI%)
MDA-MB-468 = conditions: Homo sapiens; 10 μM single dose; MDA-MB-468 (breast cancer); read-out: growth inhibition percent (GI%)
OVCAR-5 = conditions: Homo sapiens; 10 μM single dose; OVCAR-5 (ovarian cancer); read-out: growth inhibition percent (GI%)
NCI-H460 = conditions: Homo sapiens; 10 μM single dose; NCI-H460 (non-small cell lung cancer); read-out: growth inhibition percent (GI%)
SW-620 = conditions: Homo sapiens; 10 μM single dose; SW-620 (colon cancer); read-out: growth inhibition percent (GI%)

Row | SMILES | inhibition at 10 µM (MDA-MB-435) [%] | inhibition at 10 µM (UO-31) [%] | inhibition at 10 µM (HOP-62) [%] | inhibition at 10 µM (IGROV1) [%] | inhibition at 10 µM (NCI-H522) [%] | inhibition at 10 µM (NCI-H226) [%] | inhibition at 10 µM (RXF 393) [%] | inhibition at 10 µM (UACC-62) [%] | inhibition at 10 µM (HCT-15) [%] | inhibition at 10 µM (U251) [%] | inhibition at 10 µM (NCI/ADR-RES) [%] | inhibition at 10 µM (A498) [%] | inhibition at 10 µM (MCF7) [%] | inhibition at 10 µM (HT29) [%] | inhibition at 10 µM (OVCAR-8) [%] | inhibition at 10 µM (OVCAR-4) [%] | inhibition at 10 µM (LOX IMVI) [%] | inhibition at 10 µM (SNB-19) [%] | inhibition at 10 µM (RPMI-8226) [%] | inhibition at 10 µM (HCC-2998) [%] | other results
1 | N#Cc1c(-c2ccc(F)cc2)nc(SCc2ccccc2)nc1N1CCN(c2ccccc2)CC1 [4m, 2-(Benzylthio)-4-(4-fluorophenyl)-6-(4-phenylpiperazin-1-yl) pyrimidine-5-carbonitrile] | < 10 | < 10 | < 10 | < 10 | < 10 | < 10 | < 10 | 16.2 | 10.8 | < 10 | < 10 | < 10 | 16.1 | < 10 | < 10 | < 10 | < 10 | < 10 | 14.2 | < 10 | inhibition at 10 µM (CAKI-1): 10.7%; inhibition at 10 µM (SF-268): < 10%; inhibition at 10 µM (SNB-75): < 10%; inhibition at 10 µM (SF-539): < 10%; inhibition at 10 µM (ACHN): < 10%; inhibition at 10 µM (MALME-3M): < 10%; inhibition at 10 µM (NCI-H322M): < 10%; inhibition at 10 µM (CCRF-CEM): 11.1%; inhibition at 10 µM (HL-60(TB)): < 10%; inhibition at 10 µM (A549/ATCC): < 10%; inhibition at 10 µM (TK-10): < 10%; inhibition at 10 µM (786–0): < 10%; inhibition at 10 µM (SK-MEL-5): < 10%; inhibition at 10 µM (K-562): 10.6%; inhibition at 10 µM (MDA-MB-468): < 10%; inhibition at 10 µM (OVCAR-5): < 10%; inhibition at 10 µM (NCI-H460): < 10%; inhibition at 10 µM (SW-620): < 10%
2 | N#Cc1c(-c2ccc(F)cc2)nc(SCc2ccc(F)cc2)nc1N1CCN(c2ccccc2)CC1 [4n, 2-((4-Fluorobenzyl)thio)-4-(4-fluorophenyl)-6-(4-phenylpiperazin-1-yl)pyrimidine-5-carbonitrile] | < 10 | < 10 | < 10 | < 10 | 10.3 | < 10 | < 10 | 25.8 | < 10 | < 10 | < 10 | < 10 | 24.8 | < 10 | < 10 | 10.4 | < 10 | < 10 | 22.3 | < 10 | inhibition at 10 µM (CAKI-1): 16.3%; inhibition at 10 µM (SF-268): 14.1%; inhibition at 10 µM (SNB-75): 15.6%; inhibition at 10 µM (SF-539): < 10%; inhibition at 10 µM (ACHN): < 10%; inhibition at 10 µM (MALME-3M): < 10%; inhibition at 10 µM (NCI-H322M): < 10%; inhibition at 10 µM (CCRF-CEM): 16.6%; inhibition at 10 µM (HL-60(TB)): < 10%; inhibition at 10 µM (A549/ATCC): < 10%; inhibition at 10 µM (TK-10): < 10%; inhibition at 10 µM (786–0): < 10%; inhibition at 10 µM (SK-MEL-5): 12.4%; inhibition at 10 µM (K-562): 12.5%; inhibition at 10 µM (MDA-MB-468): < 10%; inhibition at 10 µM (OVCAR-5): < 10%; inhibition at 10 µM (NCI-H460): < 10%; inhibition at 10 µM (SW-620): < 10%
3 | N#Cc1c(-c2ccc(F)cc2)nc(SCc2ccc([N+](=O)[O-])cc2)nc1N1CCN(c2ccccc2)CC1 [4o, 4-(4-Fluorophenyl)-2-((4-nitrobenzyl)thio)-6-(4-phenylpiperazin-1-yl)pyrimidine-5-carbonitrile] | < 10 | < 10 | < 10 | < 10 | < 10 | < 10 | < 10 | 18.1 | < 10 | < 10 | < 10 | < 10 | 14.8 | < 10 | < 10 | 12.3 | < 10 | < 10 | 15.3 | < 10 | inhibition at 10 µM (CAKI-1): 13.7%; inhibition at 10 µM (SF-268): < 10%; inhibition at 10 µM (SNB-75): 12.4%; inhibition at 10 µM (SF-539): < 10%; inhibition at 10 µM (ACHN): < 10%; inhibition at 10 µM (MALME-3M): < 10%; inhibition at 10 µM (NCI-H322M): < 10%; inhibition at 10 µM (CCRF-CEM): < 10%; inhibition at 10 µM (HL-60(TB)): < 10%; inhibition at 10 µM (A549/ATCC): < 10%; inhibition at 10 µM (TK-10): < 10%; inhibition at 10 µM (786–0): < 10%; inhibition at 10 µM (SK-MEL-5): < 10%; inhibition at 10 µM (K-562): < 10%; inhibition at 10 µM (MDA-MB-468): 10.9%; inhibition at 10 µM (OVCAR-5): < 10%; inhibition at 10 µM (NCI-H460): < 10%; inhibition at 10 µM (SW-620): < 10%
